Measured values as given in article PMC7168710, “Antibacterial Activity of Rationally Designed Antimicrobial Peptides” (International Journal of Microbiology, 2020).
Converted amounts (≈) assume the structure as drawn.

Legend:
[1] = system: K. pneumoniae (ATCC 700603); assay: Growth inhibitory assay (time curve, OD620), K. pneumoniae; type: cell-based, Klebsiella pneumoniae; settings: for Growth inhibition of K. pneumoniae over time: OD620 measured 3 to 8 h after treatment, 96-well plates, different peptide concentrations (25 μg/ml and lower)
Protocol: (§1) The growth curves for K. pneumoniae (ATCC 700603) and P. aeruginosa (ATCC 22108) treated with Molecule 3 and Molecule 7 over time were determined based on measurements taken at 620 nm at each collection time. Different concentrations of the peptide were added to the tested strains (K. pneumonia and P. aeruginosa), which were cultured in 96 well plates using the same method as used for the determination of the antimicrobial activity of the AMPs and the MIC.
(§2) In addition to the determined MICs, we investigated the rate at which the peptides influence the bacterial growth over time (Figures 1 and 2). The OD620 was measured from 3 to 8 h after treatment with a microplate reader, with Ampicillin as a positive control.

[2] = system: P. aeruginosa (ATCC 22108); assay: Microtiter broth dilution MIC, P. aeruginosa; type: cell-based, Pseudomonas aeruginosa; settings: for MIC, P. aeruginosa: microtiter broth dilution (CLSI), TSB, 0.5 McFarland, 24 h 37°C, INT 3 h, absorbance 620 nm, MIC = about 90% killing of inoculum, triplicate, repeated three times
Protocol: (§3) The antibacterial activity of the putative antimicrobial peptides was carried out on Staphylococcus aureus spp., a Gram-positive bacterium obtained from the American Type Culture Collection (ATCC), with the S. aureus spp. comprising of the methicillin-sensitive S. aureus (ATCC 25923) and the methicillin-resistant S. aureus (ATCC 33591) strains. The other bacterial strains tested were K. pneumoniae (ATCC 700603) and P. aeruginosa (ATCC 22108) which are Gram-negative bacteria.
(§4) A stock solution of AMPs was prepared by dissolving an amount of AMPs in sterile distilled water (dH2O), and the various AMP working concentrations used in the microtiter broth dilution assay were prepared in two-fold serial dilutions starting at a concentration of 500 μg/ml to 1.5625 μg/ml. Ampicillin was utilized as the positive control in this assay and a working stock solution of 100 μg/ml was prepared in distilled water.
(§5) The microtiter broth dilution method was employed to measure the antibacterial activity of the AMP's. The assay was performed according to the standards and guidelines as stipulated in the Clinical and Laboratory Standards Institute (CLSI). In brief, the test microorganisms (MRSA (ATCC 33591), MSSA (ATCC 25923), K. pneumoniae (ATCC 700603), and P. aeruginosa (ATCC 22108)) were grown to the midlogarithmic phase in Tryptic Soy Broth (TSB) on a shaker set at 37°C and shaking at 150 rpm. The turbidity was adjusted to a 0.5 McFarland standard with a final volume of 10 ml. From the stock of prepared AMP solutions, various working peptide concentrations (500 μg/ml to 1.5625 μg/ml) were prepared, and a mixture of the bacteria with the peptides was incubated in a 96 well flat bottom plate for 24 h at 37°C. Following 24 h incubation, 40 μl of 2-(4-iodophenyl)-3-(4-nitrophenyl)-5-phenyl-2H-tetrazolium (INT) was added to each well and incubated again for 3 h. Absorbance readings were taken at 620 nm on a microtiter plate reader (Omega®POLARstar BMG Labtech, USA).
(§6) All the antibacterial assays of the AMPs were prepared in triplicate, and the experiments were repeated three times to ensure the reproducibility of the testing. Absorbance results were exported into an Excel file, where they were transformed into a percentage, in a Normalizing process. The MIC of each peptide was defined as the concentration resulting in about 90% killing of the initial inoculums.

[3] = system: P. aeruginosa (ATCC 22108); assay: Growth inhibitory assay (time curve, OD620), P. aeruginosa; type: cell-based, Pseudomonas aeruginosa; settings: for Growth inhibition of P. aeruginosa over time: OD620 measured 3 to 8 h after treatment, 96-well plates, different peptide concentrations (25 μg/ml and lower)
Protocol: as §1, §2

[4] = system: K. pneumoniae (ATCC 700603); assay: Microtiter broth dilution MIC, K. pneumoniae; type: cell-based, Klebsiella pneumoniae; settings: for MIC, K. pneumoniae: microtiter broth dilution (CLSI), TSB, 0.5 McFarland, 24 h 37°C, INT 3 h, absorbance 620 nm, MIC = about 90% killing of inoculum, triplicate, repeated three times
Protocol: as §3, §4, §5, §6

[5] = system: methicillin-resistant S. aureus (ATCC 33591); assay: Microtiter broth dilution MIC, MRSA; type: cell-based, Staphylococcus aureus; settings: for MIC, MRSA: microtiter broth dilution (CLSI), TSB, 0.5 McFarland, 24 h 37°C, INT 3 h, absorbance 620 nm, MIC = about 90% killing of inoculum, triplicate, repeated three times; for Sensitivity of MRSA (ATCC 33591) to the peptide: microtiter screening, up to 500 μg/ml
Protocol: as §3, §4, §5, §6

[6] = system: methicillin-sensitive S. aureus (ATCC 25923); assay: Microtiter broth dilution MIC, MSSA; type: cell-based, Staphylococcus aureus; settings: for MIC, MSSA: microtiter broth dilution (CLSI), TSB, 0.5 McFarland, 24 h 37°C, INT 3 h, absorbance 620 nm, MIC = about 90% killing of inoculum, triplicate, repeated three times; for Sensitivity of MSSA (ATCC 25923) to the peptide: microtiter screening, up to 500 μg/ml
Protocol: as §3, §4, §5, §6

HEK293T cell line = assay: MTT cytotoxicity assay, HEK293T; type: cell-based, human; settings: 48 h treatment; for cell lines inhibition, HEK293T: 25 μg/ml peptide; for Cell viability, HEK 293T: 100 μg/ml peptide, one value given for both peptides, repeated three times
Protocol: (§7) The cytotoxicity activity of the AMPs was measured by using the 3-(4,5-dimethylthiazol-2-yl)-2,5- diphenyltetrazolium bromide (MTT) assay as described by Freimoser. In brief, after the trypsinisation of HEK293T and HepG2 cells, 1 × 10^4 cells/well were seeded in a 96-well sterile plate and grown to confluence in Dulbecco's modified Eagle's medium containing 10% fetal calf serum. Molecule 3 and Molecule 7 were each added to the wells at different concentrations (10 μg/ml, 25 μg/ml, 50 μg/ml, and 100 μg/ml). Cells treated with 6% DMSO served as positive control. After 48 h after treatment with the peptides, 20 μl of MTT solution was added to each well, and the plates were incubated in a humidified incubator for 3 h in 5% CO2 at 37°C. After incubation, the media was removed and dimethyl sulfoxide (DMSO) (100 μl per well) was added into each well and the plate was again incubated in a shaker at 37°C, 5% CO2 incubator for 10 min. The plates were gently swirled for 10 min at room temperature to dissolve the precipitate. The absorbance was determined using a multiplate reader (Omega®POLARstar BMG Labtech, USA) at a wavelength of 570 nm, 600 nm, and 630 nm.
(§8) The assay was repeated three times to confirm the reproducibility of the experiment. The final absorbance of the treated cells was obtained by subtracting the background absorbance of the multi-well plate at 630 nm and from the 570 nm measurements. The percentage cell viability was calculated using the following formulae:(1) Cell viability %=OD570−OD630Treated sample/OD570−OD630Untreated control×100.
(§9) Absorbance results were exported into an Excel file, where they were transformed into a percentage, in a process called normalizing.

HepG2 cell line = assay: MTT cytotoxicity assay, HepG2; type: cell-based, human; settings: 48 h treatment; for cell lines inhibition, HepG2: 25 μg/ml peptide; for Cell viability, HepG2: 100 μg/ml peptide, one value given for both peptides, repeated three times
Protocol: as §7, §8, §9

[7] = 100 μg/ml, OD620 time curve 3 to 8 h

Molecule	Growth inhibition of K. pneumoniae, positive control [1, 7]	MIC ([2]; Pseudomonas aeruginosa, ATCC22108, read-out: MIC, P. aeruginosa) [µg/mL]	Growth inhibition of P. aeruginosa, positive control [3, 7]	MIC ([4]; Klebsiella pneumoniae, ATCC700603, read-out: MIC, K. pneumoniae) [µg/mL]	MIC ([5]; Staphylococcus aureus, read-out: MIC, MRSA) [µg/mL]	MIC ([6]; Staphylococcus aureus, read-out: MIC, MSSA) [µg/mL]	Growth inhibition of K. pneumoniae over time [1]	Period of growth suppression of K. pneumoniae ([1]; peptide concentration 6.25 μg/ml, OD620 time curve) [h]	MIC, P. aeruginosa [2] [µg/mL]	cell lines inhibition, HEK293T (HEK293T cell line)	Cell viability, HEK 293T (HEK293T cell line) [%]	Growth inhibition of P. aeruginosa over time [3]	MIC, K. pneumoniae [4] [µg/mL]	MIC, MRSA [5] [µg/mL]	Sensitivity of MRSA (ATCC 33591) to the peptide [5]	MIC, MSSA [6] [µg/mL]	Sensitivity of MSSA (ATCC 25923) to the peptide [6]	cell lines inhibition, HepG2 (HepG2 cell line)	Cell viability, HepG2 (HepG2 cell line) [%]
CC1(C)S[C@@H]2[C@H](NC(=O)[C@H](N)c3ccccc3)C(=O)N2[C@H]1C(=O)O [Ampicillin, reference compound]	failed to inhibit the growth	100 (≈ 286 µM)	could inhibit the growth	> 100	> 100	> 100	–	–	–	–	–	–	–	–	–	–	–	–	–
RWKLFKKIEKVGRNVRDGLIKAGPAIAVIGQAKSLGK [Molecule 3, putative anti-HIV antimicrobial peptide, chemically synthesized by solid-phase method]	–	–	–	–	–	–	able to suppress the growth of K. pneumoniae (ATCC 700603) at concentrations equal to the MIC (12.5 μg/ml) and 2x MIC	4	6.25	more than 90%	59.29	able to inhibit P. aeruginosa at all the concentrations and for the duration of the experiment	12.5	>500	insensitive	>500	insensitive	more than 90%	79.5
WNPFKELEKAGQRVRDAIISAKPAVDVVGQATAIIK [Molecule 10, putative anti-HIV antimicrobial peptide, chemically synthesized by solid-phase method]	–	–	–	–	–	–	–	–	>500	–	–	–	500	>500	–	>500	–	–	–
RWKIFKKIEKMGRNIRDGIVKAGPAIEVLGSAKAIGK [Molecule 7, putative anti-HIV antimicrobial peptide, chemically synthesized by solid-phase method]	–	–	–	–	–	–	could not suppress the growth of K. pneumoniae (ATCC 700603) at concentrations lower than the respective MIC values	–	6.25	more than 90%	59.29	could not inhibit P. aeruginosa growth at concentrations lower than the MIC	12.5	>500	insensitive	>500	insensitive	more than 90%	79.5
CLRYKKPECQSDWQCPGKKRCCPDTCGIKCLDPVDTPNPTRRKPGKCPVTYGQCLMLNPPNFCEMDGQCKRDLKCCMGM [Molecule 1, putative anti-HIV antimicrobial peptide, chemically synthesized by solid-phase method]	–	–	–	–	–	–	–	–	>500	–	–	–	500	>500	–	>500	–	–	–
CLKSGAICHPVFCPRRYKQIGTCGLPGTKCCKKP [Molecule 8, putative anti-HIV antimicrobial peptide, chemically synthesized by solid-phase method]	–	–	–	–	–	–	–	–	>500	–	–	–	>500	>500	–	>500	–	–	–
